Results on 13 compounds are retold here after patent US8178548B2, “Anti-infective agents and uses thereof” (priority 2007, dated 2012).

Each structure is given as a SMILES string. Where two headings read alike, the source gives them in different places.

For test [1], the system named is genotype 1b-Con1 subgenomic replicon cell line. The test can be described thus: HCV Polymerase Replicon Assay, genotype 1b-Con1 (luciferase reporter). In kind it is cell-based. The note with it: Hepatitis C virus, 72 h, read-out: EC50 1b. A general note: In antiviral work, replicon cells carry a viral genome segment that copies itself.
Test [2] concerns the target T1, HCV polymerase 1B (Δ21 NS5B, HCV Strain 1B BK) (Hepatitis C virus genotype 1b, UniProt P26663).
T1 construct: 20 to 50 nM Δ21 NS5B
The test can be described thus: biochemical. In outline:
(§1)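 Δ21 NS5B (20–50 nM) was preincubated with inhibitor, 60–125 μM GTP and 2 mM MnCl2 (pH 7.4) for 15 min at RT. RNA synthesis on 5 nM template with 20 μM CTP/ATP and 1 μM ³H-UTP ran 2–4 h at RT. Spermine-precipitated RNA was filter-counted, and IC50 was fit with a tight-binding equation.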

Test [3] addresses T2, HCV polymerase 1A (Δ21 NS5B, H77) (Hepatitis C virus genotype 1a, UniProt P27958).
T2 construct: 20 to 50 nM Δ21 NS5B
Briefly: biochemical. The procedure, abridged: as §1

For test [4], the system named is genotype 1a-H77 subgenomic replicon cell line. Briefly: HCV Polymerase Replicon Assay, genotype 1a-H77 (luciferase reporter). In kind it is cell-based. Particulars: Hepatitis C virus, 72 h, read-out: EC50 1a.

T2 sequence (P27958 2421-2990, stated change not applied): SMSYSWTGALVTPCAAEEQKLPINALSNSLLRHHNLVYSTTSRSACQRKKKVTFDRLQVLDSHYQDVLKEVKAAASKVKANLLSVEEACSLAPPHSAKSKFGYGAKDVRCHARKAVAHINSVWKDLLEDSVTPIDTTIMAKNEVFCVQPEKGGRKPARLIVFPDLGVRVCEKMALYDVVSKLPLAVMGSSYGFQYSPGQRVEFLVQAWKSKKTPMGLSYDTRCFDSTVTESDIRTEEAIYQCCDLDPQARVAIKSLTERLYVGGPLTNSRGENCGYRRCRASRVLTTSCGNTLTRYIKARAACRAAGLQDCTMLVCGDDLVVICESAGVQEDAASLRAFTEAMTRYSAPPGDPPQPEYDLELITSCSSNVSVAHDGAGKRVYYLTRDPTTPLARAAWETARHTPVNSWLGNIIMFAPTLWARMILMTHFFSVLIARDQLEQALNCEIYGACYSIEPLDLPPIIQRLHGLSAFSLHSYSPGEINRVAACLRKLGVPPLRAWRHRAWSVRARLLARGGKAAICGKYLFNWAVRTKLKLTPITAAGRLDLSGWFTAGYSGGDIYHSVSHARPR
T1 sequence (P26663 2420-2989, stated change not applied): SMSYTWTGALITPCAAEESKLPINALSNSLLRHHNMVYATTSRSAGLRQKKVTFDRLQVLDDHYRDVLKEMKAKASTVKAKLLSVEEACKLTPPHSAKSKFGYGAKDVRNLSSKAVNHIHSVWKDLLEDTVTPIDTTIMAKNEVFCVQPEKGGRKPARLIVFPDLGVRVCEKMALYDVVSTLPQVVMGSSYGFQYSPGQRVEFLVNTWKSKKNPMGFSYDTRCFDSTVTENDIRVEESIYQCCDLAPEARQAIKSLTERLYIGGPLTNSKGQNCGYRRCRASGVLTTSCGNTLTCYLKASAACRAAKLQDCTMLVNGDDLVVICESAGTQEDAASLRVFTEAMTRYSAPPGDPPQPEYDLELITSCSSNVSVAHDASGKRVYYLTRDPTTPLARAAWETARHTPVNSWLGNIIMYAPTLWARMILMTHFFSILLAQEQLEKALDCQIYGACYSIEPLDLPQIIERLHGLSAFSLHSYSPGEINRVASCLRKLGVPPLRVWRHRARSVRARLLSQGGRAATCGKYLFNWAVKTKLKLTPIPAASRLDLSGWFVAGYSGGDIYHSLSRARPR

With `COc1c(/C=C/c2ccc(NS(C)(=O)=O)cc2CO)cc(-n2ccc(=O)[nH]c2=O)cc1C(C)(C)C` [IB-L1-1.10, (E)-N-(4-(3-tert-butyl-5-(2,4-dioxo-3,4-dihydropyrimidin-1(2H)-yl)-2-methoxystyryl)-3-(hydroxymethyl)phenyl)methanesulfonamide], the EC50 in test [1] and in test [4] was below 10 nM throughout. Also, the IC50 (in general, the midpoint of a concentration-inhibition curve) in test [2] is 10 to 100 nM; in test [3], below 10 nM.
Turning to `COc1c(/C=C/c2ccc(NS(C)(=O)=O)cc2NC(=O)OC(C)(C)C)cc(-n2ccc(=O)[nH]c2=O)cc1C(C)(C)C` [IB-L1-1.32, (E)-tert-butyl 2-(3-tert-butyl-5-(2,4-dioxo-3,4-dihydropyrimidin-1(2H)-yl)-2-methoxystyryl)-5-(methylsulfonamido)phenylcarbamate], the concentration giving a half-maximal response (EC50) (in general, the concentration needed to bring the measured effect to its halfway point) in test [1] fell in the range of 10 to 100 nM; in test [4], 100 to 1000 nM. Moreover, the IC50 in test [2] and in test [3] was 100 to 1000 nM throughout.
`COC(=O)c1cc(NS(C)(=O)=O)ccc1/C=C/c1cc(-n2ccc(=O)[nH]c2=O)cc(C(C)(C)C)c1OC` [IB-L1-1.7, (E)-methyl 2-(3-tert-butyl-5-(2,4-dioxo-3,4-dihydropyrimidin-1(2H)-yl)-2-methoxystyryl)-5-(methylsulfonamido)benzoate]: the EC50 in test [1] and in test [4] was below 10 nM each time. In addition, the IC50 in test [2] is 10 to 100 nM; in test [3] it was below 10 nM.
For the compound `COc1c(/C=C/c2ccc(NS(C)(=O)=O)cc2)cc(-n2ccc(=O)[nH]c2=O)cc1S(C)(=O)=O` [IB-L1-1.49, (E)-N-(4-(5-(2,4-dioxo-3,4-dihydropyrimidin-1(2H)-yl)-2-methoxy-3-(methylsulfonyl)styryl)phenyl)methanesulfonamide], the EC50 is above 1000 nM in test [1] (replicon 1b-Con1, luciferase, three days) and above 1000 nM in test [4] (replicon 1a-H77, luciferase, three days). Moreover, the IC50 in test [2] lay within 100 to 1000 nM; in test [3] it was 10 to 100 nM.
With `COc1c(/C=C/c2ccc(NS(C)(=O)=O)cc2COC(C)C)cc(-n2ccc(=O)[nH]c2=O)cc1C(C)(C)C` [IB-L1-1.25, N-(4-{(E)-2-[3-tert-butyl-5-(2,4-dioxo-3,4-dihydro-2H-pyrimidin-1-yl)-2-methoxy-phenyl]-vinyl}-3-isopropoxymethyl-phenyl)-methanesulfonamide], the half-maximal effective concentration (EC50) in test [1] was below 10 nM; in test [4], 10 to 100 nM. The IC50 in test [2] and in test [3] was 10 to 100 nM throughout.
For the compound `COc1c(/C=C/c2ccc(NS(C)(=O)=O)cc2C(=O)N2CCCC2)cc(-n2ccc(=O)[nH]c2=O)cc1C(C)(C)C` [IB-L1-1.27, N-[4-{(E)-2-[3-tert-butyl-5-(2,4-dioxo-3,4-dihydro-2H-pyrimidin-1-yl)-2-methoxy-phenyl]-vinyl}-3-(pyrrolidine-1-carbonyl)-phenyl]-methanesulfonamide], the EC50 is below 10 nM in test [1] and 10 to 100 nM in test [4]. Moreover, the IC50 in test [2] and in test [3] was 10 to 100 nM in each case.
Take `COc1c(/C=C/c2ccc(NS(C)(=O)=O)cc2N)cc(-n2ccc(=O)[nH]c2=O)cc1C(C)(C)C` [IB-L1-1.28, (E)-N-(3-amino-4-(3-tert-butyl-5-(2,4-dioxo-3,4-dihydropyrimidin-1(2H)-yl)-2-methoxystyryl)phenyl)methanesulfonamide]: the EC50 in test [1] and in test [4] was below 10 nM in each case. Also, the half-maximal inhibitory concentration (IC50) in test [2] and in test [3] was 10 to 100 nM each time.
As to `COc1c(/C=C(\Cl)c2ccc(NS(C)(=O)=O)cc2)cc(N2CCC(=O)NC2=O)cc1C(C)(C)C` [IA-L1-1.3, (Z)-N-(4-(2-(3-tert-butyl-5-(2,4-dioxotetrahydropyrimidin-1(2H)-yl)-2-methoxyphenyl)-1-chlorovinyl)phenyl)methanesulfonamide], the results for the EC50 in test [1] and in test [4] were below 10 nM and 10 to 100 nM, respectively. Further, the half-maximal inhibitory concentration (IC50) in test [2] and in test [3] was below 10 nM throughout.
Consider `COc1c(/C=C/c2ccc(NS(C)(=O)=O)cc2-c2ncc[nH]2)cc(-n2ccc(=O)[nH]c2=O)cc1C(C)(C)C` [IB-L1-1.16, (E)-N-(4-(3-tert-butyl-5-(2,4-dioxo-3,4-dihydropyrimidin-1(2H)-yl)-2-methoxystyryl)-3-(1H-imidazol-2-yl)phenyl)methanesulfonamide], for which the EC50 in test [1] was in the range of 10 to 100 nM; in test [4], 100 to 1000 nM. Moreover, the results for the IC50 in test [2] and in test [3] were 10 to 100 nM and below 10 nM, respectively.
Regarding `CO/N=C/c1cc(NS(C)(=O)=O)ccc1/C=C/c1cc(-n2ccc(=O)[nH]c2=O)cc(C(C)(C)C)c1OC` [IB-L1-1.19, N-(4-(3-tert-butyl-5-(2,4-dioxo-3,4-dihydropyrimidin-1(2H)-yl)-2-methoxystyryl)-3-((E)-(methoxyimino)methyl)phenyl)methanesulfonamide], the concentration giving a half-maximal response (EC50) in test [1] was below 10 nM; in test [4], 10 to 100 nM. Moreover, the IC50 in test [2] was 10 to 100 nM; in test [3], below 10 nM.
In the case of `COc1c(/C=C(\C)c2ccc(NS(C)(=O)=O)cc2)cc(N2CCC(=O)NC2=O)cc1C(C)(C)C` [IA-L1-1.6, (E)-N-(4-(1-(3-tert-butyl-5-(2,4-dioxotetrahydropyrimidin-1(2H)-yl)-2-methoxyphenyl)prop-1-en-2-yl)phenyl)methanesulfonamide], the EC50 in test [1] and in test [4] was 10 to 100 nM in each case. Further, the half-maximal inhibitory concentration (IC50) in test [2] is 10 to 100 nM; in test [3] it was below 10 nM.
In the case of `COc1c(/C=C/c2cc(F)c(NS(C)(=O)=O)cc2C)cc(-n2ccc(=O)[nH]c2=O)cc1C(C)(C)C` [IB-L1-1.15, (E)-N-(4-(3-tert-butyl-5-(2,4-dioxo-3,4-dihydropyrimidin-1(2H)-yl)-2-methoxystyryl)-2-fluoro-5-methylphenyl)methanesulfonamide], the concentration for a half-maximal effect (EC50) in test [1] and in test [4] was below 10 nM each time. Further, the IC50 in test [2] was 10 to 100 nM; in test [3], below 10 nM.
As to `COc1c(/C=C(\C)c2ccc([N+](=O)[O-])cc2)cc(N2CCC(=O)NC2=O)cc1C(C)(C)C` [IA-L1-1.24, 1-{3-tert-butyl-4-methoxy-5-[(E)-2-(4-nitro-phenyl)-propenyl]-phenyl}-dihydro-pyrimidine-2,4-dione], the EC50 in test [1] and in test [4] was above 1000 nM each time. In addition, the IC50 in test [2] and in test [3] was above 1000 nM each time.
